These results are taken from publication PMC9101728, “Isolation and HPLC Quantitative Determination of 5α-Reductase Inhibitors from Tectona grandis L.f. Leaf Extract” (Molecules, 2022).

Structures are written as SMILES. Where “and” joins values, the source holds several entries; their conditions need not be identical. Identical values can stand only once. Like-named read-outs stand apart in the source and are kept apart here. Bounds are passed on as bounds.

One may read the IC50 as the midpoint of a concentration-inhibition curve.

Assay [1] addresses T1, 5α-reductase (Homo sapiens, UniProt P18405).
T1 sequence (P18405 1-259): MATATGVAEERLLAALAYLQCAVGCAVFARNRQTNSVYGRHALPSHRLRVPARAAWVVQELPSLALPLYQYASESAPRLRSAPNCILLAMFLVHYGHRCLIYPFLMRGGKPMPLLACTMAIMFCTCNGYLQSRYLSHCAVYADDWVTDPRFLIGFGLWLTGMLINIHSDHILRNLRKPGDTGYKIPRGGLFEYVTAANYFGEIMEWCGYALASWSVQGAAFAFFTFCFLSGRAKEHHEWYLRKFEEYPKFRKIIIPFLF
Nature of the assay: Enzymatic 5α-reductase inhibition assay (conversion of testosterone to DHT, LC-MS), crude enzyme from LNCaP cells. Type of assay: biochemical. Also on record: adding 80 µL of homogenized crude enzyme (equivalent to 75 µg protein); host or cells: LNCaP cells, sonicated homogenate used as crude enzyme. The following applies: for IC50: isolated compounds, LNCaP cell crude enzyme, mean ± SD of triplicate, read-out: IC50 against 5α-reductase (converted); for 5α-reductase inhibitory activity (in words): qualitative statement. The procedure:
The steroid 5α-reductase inhibitory activity of samples on the conversion of testosterone to DHT was determined using LNCaP cell as a source of enzyme.
5α-reductase was prepared as a crude enzyme from the androgen-dependent LNCaP cells (ATCC® CRL-1740^TM) using the procedure as described by Fachrunniza et al., which was modified from Srivilai et al.. Briefly, the LNCaP cells were cultured in a 175 cm^2 culture flask at 37 °C under a 5% CO2 humidified atmosphere and cultured until reaching approximately 80% confluency. The medium was removed and the cells were rinsed with tris-HCl buffer solution, pH 7.4 (containing 10 mM Tris-HCl buffer; 50 mM KCl; 1 mM EDTA; 0.5 mM phenylmethanesulfonyl fluoride). The cells were then scraped off and centrifuged at 1900× g for 10 min. The cell pellets were collected and re-suspended in tris-HCl buffer solution pH 7.4 to a concentration of ≥9 × 10^7 cells/mL and the resultant cell pellets were kept in an ice bath and homogenized using a sonication probe. The total protein content in the homogenized crude enzyme was not less than 75 µg protein equivalent in this 5α-reductase inhibitory assay, which was measured using the Pierce bicinchoninic acid (BCA) protein assay (Pierce, Rockford, IL, USA).
The in vitro inhibitory activity of the samples against the conversion of testosterone to DHT by 5α-reductase was carried out according to the method described by Srivilai et al.. The DHT formation after the enzymatic reaction was determined using liquid chromatography mass spectrometry (LC-MS) to measure 5α-reductase activity. […] In the assay, the reaction was performed in U-shaped 96-deep-well plates covered by well-cap mats to create a solution that contained 10 µL of the tested sample dissolved in dimethyl sulfoxide (DMSO), 20 µL of testosterone (34.7 µM in propylene glycol and water), and 50 µL of β-nicotinamide adenine dinucleotide phosphate (NADPH, 1 mM in tris-HCl buffer pH 7.4). The enzymatic reaction was started by adding 80 µL of homogenized crude enzyme (equivalent to 75 µg protein), and the final volume was adjusted to 200 µL by adding 40 µL of tris-HCl buffer pH 7.4. The reaction was maintained in a water bath with a shaker at 37 °C for 60 min and then the reaction was stopped by adding 300 µL of hydroxylamine hydrochloride (HM) (10 mg/mL in 80% v/v ethanol). The solution was then incubated for another 60 min at 60 °C to completely derivatize all the DHT that was produced. After incubation, the solution was centrifuged at 1700× g for 10 min and the supernatant was collected for quantitated DHT production by LC-MS. Two control groups, C0 and C60, were prepared with all the solutions, including 10 µL of DMSO, but no test sample. Control group C0 was stopped (by adding HM) before the enzymatic incubation at 0 min, while the control group C60 continued with the enzymatic reaction and was stopped after 60 min of incubation. The DHT production was determined using LC-MS. The inhibition of tested sample was determined by measuring the area under the curve (AUC) of extracted ion chromatogram (EIC) of derivatized-DHT (m/z [M + H]^+, 306.2428) which was used to calculate the enzymatic reaction inhibition by the following Equation (1):(1) 5α-reductase inhibitory activity (%)= [1 −AUC of sample−AUC of C0/AUC of C60 −AUC of C0] ×100

Assay [2] addresses T1, 5α-reductase. The conditions noted are these: read-out: IC50 against 5α-reductase; positive controls; same assay system; cited from earlier work.

With `C=C(C)[C@@H]1CC[C@]2(C)CC[C@]3(C)[C@H](CC[C@@H]4[C@@]5(C)CC[C@H](O)C(C)(C)[C@@H]5CC[C@]43C)[C@@H]12` [Compound 3, lupeol], at 5α-reductase [1], the IC50 is > 400 µM and the “5α-reductase inhibitory activity (in words)” value was “weak inhibitory activity”.

On to `CC1=CC[C@H]2C(C)(C)CCC[C@]2(C)[C@H]1CC/C(C)=C/C(=O)O` [Compound 2, (+)-eperua-7,13-dien-15-oic acid], for which, on 5α-reductase [1], the IC50 is 14.6 µM and the “5α-reductase inhibitory activity (in words)” value is “potent 5α-reductase inhibitory activity”.

As for `CC1=C(CC/C(C)=C/C(=O)O)[C@@]2(C)CCCC(C)(C)[C@@H]2CC1` [Compound 1, (+)-eperua-8,13-dien-15-oic acid], on 5α-reductase [1], the IC50 was 14.2 µM and the “5α-reductase inhibitory activity (in words)” value is reported as “potent 5α-reductase inhibitory activity”. In the case of `CC(C)(C)NC(=O)[C@H]1CC[C@H]2[C@@H]3CC[C@H]4NC(=O)C=C[C@]4(C)[C@H]3CC[C@]12C` [Finasteride], the IC50 on 5α-reductase [2] was 0.752 µM and 0.73 µM.
